Assay results as given in paper PMC9533837 (Antiviral Research, 2003).
Values after ≈ are worked out from the molar mass of the structure shown. Read-outs that look alike come from different tables or passages of the source.

Key:
[1] = tested on: VAR-BSH (1975 Bangladesh isolate of VAR major); test: organism not typed; format: cell-based, variola major; conditions: for IC50: Vero
[2] = tested on: VAR-BSH (1975 Bangladesh isolate of VAR major); test: organism not typed; format: cell-based, variola major; conditions: for IC50: LLC-MK2, read-out: IC50 VAR-BSH LLC-MK2
[3] = tested on: VAR-YAM (1946 Japan Yamada isolate of VAR major); test: organism not typed; format: cell-based, variola major; conditions: for IC50: Vero
[4] = tested on: VAR-YAM (1946 Japan Yamada isolate of VAR major); test: organism not typed; format: cell-based, variola major; conditions: for IC50: LLC-MK2, read-out: IC50 VAR-YAM LLC-MK2
[5] = tested on: VAR-GAR (1966 Brazil Garcia isolate of VAR minor); test: organism not typed; format: cell-based, variola minor; conditions: for IC50: Vero
[6] = tested on: VAR-GAR (1966 Brazil Garcia isolate of VAR minor); test: organism not typed; format: cell-based, variola minor; conditions: for IC50: LLC-MK2, read-out: IC50 VAR-GAR LLC-MK2
[7] = tested on: MPX Zaire (V79-1-005-Scab); test: organism not typed; format: cell-based, monkeypox; conditions: for IC50: Vero
[8] = tested on: MPX Zaire (V79-1-005-Scab); test: organism not typed; format: cell-based, monkeypox; conditions: for IC50: LLC-MK2, read-out: IC50 MPX LLC-MK2
CPX Brighton [9] = test: organism not typed; format: cell-based, cowpox; conditions: for IC50: Vero
CPX Brighton [10] = test: organism not typed; format: cell-based, cowpox; conditions: for IC50: LLC-MK2, read-out: IC50 CPX LLC-MK2
VAC Copenhagen [11] = test: microbe, parasite or virus in culture; format: cell-based, vaccinia virus; conditions: for IC50: Orthopoxvirus vaccinia, Vero, read-out: IC50 VAC Vero
VAC Copenhagen [12] = test: microbe, parasite or virus in culture; format: cell-based, vaccinia virus; conditions: for IC50: Orthopoxvirus vaccinia, LLC-MK2, read-out: IC50 VAC LLC-MK2
VAR isolate Butler = test: organism not typed; format: cell-based, variola minor; conditions: Vero, read-out: IC50, VAR isolate Butler
VAR isolate Minn124 = test: organism not typed; format: cell-based, variola minor; conditions: Vero, read-out: IC50, VAR isolate Minn124
VAR isolate V68-59 = test: organism not typed; format: cell-based, variola minor; conditions: Vero, read-out: IC50, VAR isolate V68-59
VAR isolate 102 = test: organism not typed; format: cell-based, variola; conditions: Vero, read-out: IC50, VAR isolate 102
VAR isolate 7124 = test: organism not typed; format: cell-based, variola; conditions: Vero, read-out: IC50, VAR isolate 7124
VAR isolate 7125 = test: organism not typed; format: cell-based, variola; conditions: Vero, read-out: IC50, VAR isolate 7125
VAR isolate Harper = test: organism not typed; format: cell-based, variola; conditions: Vero, read-out: IC50, VAR isolate Harper
VAR isolate Heidelberg = test: organism not typed; format: cell-based, variola; conditions: Vero, read-out: IC50, VAR isolate Heidelberg
VAR isolate Higgins = test: organism not typed; format: cell-based, variola; conditions: Vero, read-out: IC50, VAR isolate Higgins
VAR isolate Hinden = test: organism not typed; format: cell-based, variola; conditions: Vero, read-out: IC50, VAR isolate Hinden
VAR isolate Iran 2602 = test: organism not typed; format: cell-based, variola; conditions: Vero, read-out: IC50, VAR isolate Iran 2602
VAR isolate K1629 = test: organism not typed; format: cell-based, variola; conditions: Vero, read-out: IC50, VAR isolate K1629
VAR isolate Rafig Lahore = test: organism not typed; format: cell-based, variola; conditions: Vero, read-out: IC50, VAR isolate Rafig Lahore
VAR isolate Shahzaman = test: organism not typed; format: cell-based, variola; conditions: Vero, read-out: IC50, VAR isolate Shahzaman
VAR isolate Somalia = test: organism not typed; format: cell-based, variola; conditions: Vero, read-out: IC50, VAR isolate Somalia
VAR isolate V70-46 = test: organism not typed; format: cell-based, variola; conditions: Vero, read-out: IC50, VAR isolate V70-46
VAR isolate V73-175 = test: organism not typed; format: cell-based, variola; conditions: Vero, read-out: IC50, VAR isolate V73-175
VAR isolate V73-225 = test: organism not typed; format: cell-based, variola; conditions: Vero, read-out: IC50, VAR isolate V73-225
VAR isolate V74-227 = test: organism not typed; format: cell-based, variola; conditions: Vero, read-out: IC50, VAR isolate V74-227
VAR isolate V77-1605 = test: organism not typed; format: cell-based, variola; conditions: Vero, read-out: IC50, VAR isolate V77-1605
[13] = tested on: orthopoxviruses (VAR-BSH, VAR-YAM, VAR-GAR, MPX, CPX, VAC); test: organism not typed; format: cell-based
Vero cells = conditions: African green monkey
LLC-MK2 cells = conditions: rhesus monkey
CPX = conditions: cited from earlier work
VAC = conditions: cited from earlier work
[14] = read-out: IC50, VAR isolate Bangladesh
[15] = read-out: IC50, VAR isolate Yamada
[16] = read-out: IC50, VAR isolate Garcia

## Nc1ccn(C[C@@H](CO)OCP(=O)(O)O)c(=O)n1 [Cidofovir, 1-[(S)-3-hydroxy-2-(phosphonomethoxy)-propyl]cytosine]
[1]
  Therapeutic index (TI) VAR-BSH Vero: 10.5
[1]; 120 h, read-out: apparent IC50
  IC50: 10.9 µg/mL (≈ 39 µM)
[1]; [14]
  IC50: 17 µg/mL (≈ 60.9 µM)
[1]; read-out: IC50 VAR-BSH Vero
  IC50: 9.5 µg/mL (≈ 34 µM)
[2]
  Therapeutic index (TI) VAR-BSH LLC-MK2: 31.3
  IC50: 3.2 µg/mL (≈ 11.5 µM)
[3]
  Therapeutic index (TI) VAR-YAM Vero: 8.3
[3]; [15]
  IC50: 13 µg/mL (≈ 46.6 µM)
[3]; read-out: IC50 VAR-YAM Vero
  IC50: 12.1 µg/mL (≈ 43.3 µM)
[4]
  Therapeutic index (TI) VAR-YAM LLC-MK2: 37.0
  IC50: 2.7 µg/mL (≈ 9.67 µM)
[5]
  Therapeutic index (TI) VAR-GAR Vero: 22.2
[5]; [16]
  IC50: 7 µg/mL (≈ 25.1 µM)
[5]; read-out: IC50 VAR-GAR Vero
  IC50: 4.5 µg/mL (≈ 16.1 µM)
[6]
  Therapeutic index (TI) VAR-GAR LLC-MK2: 40.0
  IC50: 2.5 µg/mL (≈ 8.95 µM)
[7]
  Therapeutic index (TI) MPX Vero: 14.9
[7]; read-out: IC50, MPX
  IC50: 11 µg/mL (≈ 39.4 µM)
[7]; read-out: IC50 MPX Vero
  IC50: 6.7 µg/mL (≈ 24 µM)
[8]
  Therapeutic index (TI) MPX LLC-MK2: 27.0
  IC50: 3.7 µg/mL (≈ 13.3 µM)
CPX Brighton [9]
  Therapeutic index (TI) CPX Vero: 13.3
CPX Brighton [9]; read-out: IC50, CPX
  IC50: 13 µg/mL (≈ 46.6 µM)
CPX Brighton [9]; read-out: IC50 CPX Vero
  IC50: 7.5 µg/mL (≈ 26.9 µM)
CPX Brighton [10]
  Therapeutic index (TI) CPX LLC-MK2: 83.3
  IC50: 1.2 µg/mL (≈ 4.3 µM)
VAC Copenhagen [11]
  Therapeutic index (TI) VAC Vero: 12.3
  IC50: 8.1 µg/mL (≈ 29 µM)
VAC Copenhagen [12]
  Therapeutic index (TI) VAC LLC-MK2: 23.3
  IC50: 4.3 µg/mL (≈ 15.4 µM)
VAR isolate Butler
  IC50: 6 µg/mL (≈ 21.5 µM)
VAR isolate Minn124
  IC50: 5 µg/mL (≈ 17.9 µM)
VAR isolate V68-59
  IC50: 13 µg/mL (≈ 46.6 µM)
VAR isolate 102
  IC50: 23 µg/mL (≈ 82.4 µM)
VAR isolate 7124
  IC50: 20 µg/mL (≈ 71.6 µM)
VAR isolate 7125
  IC50: 12 µg/mL (≈ 43 µM)
VAR isolate Harper
  IC50: 28 µg/mL (≈ 100 µM)
VAR isolate Heidelberg
  IC50: 15 µg/mL (≈ 53.7 µM)
VAR isolate Higgins
  IC50: 14 µg/mL (≈ 50.1 µM)
VAR isolate Hinden
  IC50: 10 µg/mL (≈ 35.8 µM)
VAR isolate Iran 2602
  IC50: 8 µg/mL (≈ 28.7 µM)
VAR isolate K1629
  IC50: 17 µg/mL (≈ 60.9 µM)
VAR isolate Rafig Lahore
  IC50: 12 µg/mL (≈ 43 µM)
VAR isolate Shahzaman
  IC50: 11 µg/mL (≈ 39.4 µM)
VAR isolate Somalia
  IC50: 7 µg/mL (≈ 25.1 µM)
VAR isolate V70-46
  IC50: 7 µg/mL (≈ 25.1 µM)
VAR isolate V73-175
  IC50: 12 µg/mL (≈ 43 µM)
VAR isolate V73-225
  IC50: 5 µg/mL (≈ 17.9 µM)
VAR isolate V74-227
  IC50: 10 µg/mL (≈ 35.8 µM)
VAR isolate V77-1605
  IC50: 19 µg/mL (≈ 68.1 µM)
[13]
  TI against the panel of viruses: 18.2
[13]; read-out: mean IC50 against the panel of viruses
  IC50: 5.5 ± 0.95 µg/mL (≈ 19.7 µM)
Vero cells
  Cytotoxicity TC50 Vero: >100 µg/mL
LLC-MK2 cells
  Cytotoxicity TC50 LLC-MK2: >100 µg/mL
CPX
  activity in vivo, CPX mouse model: active in vivo
VAC
  inhibition of VAC replication in vitro: inhibit VAC replication in vitro

## NC(=O)c1ncn([C@@H]2O[C@H](CO)[C@@H](O)[C@H]2O)n1 [Ribavirin]
[1]
  Therapeutic index (TI) VAR-BSH Vero: 5.4
[1]; [14]
  IC50: 30 µg/mL (≈ 123 µM)
[1]; read-out: IC50 VAR-BSH Vero
  IC50: 18.4 µg/mL (≈ 75.3 µM)
[2]
  Therapeutic index (TI) VAR-BSH LLC-MK2: 47.6
  IC50: 2.1 µg/mL (≈ 8.6 µM)
[3]
  Therapeutic index (TI) VAR-YAM Vero: 6.3
[3]; [15]
  IC50: 40 µg/mL (≈ 164 µM)
[3]; read-out: IC50 VAR-YAM Vero
  IC50: 15.8 µg/mL (≈ 64.7 µM)
[4]
  Therapeutic index (TI) VAR-YAM LLC-MK2: 29.4
  IC50: 3.4 µg/mL (≈ 13.9 µM)
[5]
  Therapeutic index (TI) VAR-GAR Vero: 5.9
[5]; [16]
  IC50: 39 µg/mL (≈ 160 µM)
[5]; read-out: IC50 VAR-GAR Vero
  IC50: 17 µg/mL (≈ 69.6 µM)
[6]
  Therapeutic index (TI) VAR-GAR LLC-MK2: 27.8
  IC50: 3.6 µg/mL (≈ 14.7 µM)
[7]
  Therapeutic index (TI) MPX Vero: 16.9
[7]; read-out: IC50, MPX
  IC50: 11 µg/mL (≈ 45 µM)
[7]; read-out: IC50 MPX Vero
  IC50: 5.9 µg/mL (≈ 24.2 µM)
[8]
  Therapeutic index (TI) MPX LLC-MK2: 24.4
  IC50: 4.1 µg/mL (≈ 16.8 µM)
CPX Brighton [9]
  Therapeutic index (TI) CPX Vero: 3.3
CPX Brighton [9]; read-out: IC50, CPX
  IC50: > 300 µg/mL
CPX Brighton [9]; read-out: IC50 CPX Vero
  IC50: 30.6 µg/mL (≈ 125 µM)
CPX Brighton [10]
  Therapeutic index (TI) CPX LLC-MK2: 9.4
  IC50: 10.6 µg/mL (≈ 43.4 µM)
VAC Copenhagen [11]
  Therapeutic index (TI) VAC Vero: 1.0
  IC50: > 100 µg/mL
VAC Copenhagen [12]
  Therapeutic index (TI) VAC LLC-MK2: 4.2
  IC50: 23.9 µg/mL (≈ 97.9 µM)
VAR isolate Butler
  IC50: 28 µg/mL (≈ 115 µM)
VAR isolate Minn124
  IC50: 32 µg/mL (≈ 131 µM)
VAR isolate V68-59
  IC50: 41 µg/mL (≈ 168 µM)
VAR isolate 102
  IC50: 110 µg/mL (≈ 450 µM)
VAR isolate 7124
  IC50: 36 µg/mL (≈ 147 µM)
VAR isolate 7125
  IC50: 37 µg/mL (≈ 152 µM)
VAR isolate Harper
  IC50: 40 µg/mL (≈ 164 µM)
VAR isolate Heidelberg
  IC50: 43 µg/mL (≈ 176 µM)
VAR isolate Higgins
  IC50: 48 µg/mL (≈ 197 µM)
VAR isolate Hinden
  IC50: 33 µg/mL (≈ 135 µM)
VAR isolate Iran 2602
  IC50: 11 µg/mL (≈ 45 µM)
VAR isolate K1629
  IC50: 24 µg/mL (≈ 98.3 µM)
VAR isolate Rafig Lahore
  IC50: 30 µg/mL (≈ 123 µM)
VAR isolate Shahzaman
  IC50: 15 µg/mL (≈ 61.4 µM)
VAR isolate Somalia
  IC50: 84 µg/mL (≈ 344 µM)
VAR isolate V70-46
  IC50: 45 µg/mL (≈ 184 µM)
VAR isolate V73-175
  IC50: 17 µg/mL (≈ 69.6 µM)
VAR isolate V73-225
  IC50: 26 µg/mL (≈ 106 µM)
VAR isolate V74-227
  IC50: 54 µg/mL (≈ 221 µM)
VAR isolate V77-1605
  IC50: 453 µg/mL (≈ 1850 µM)
[13]; LLC-MK2, read-out: mean IC50 on LLC-MK2 cells
  IC50: 8 ± 3.4 µg/mL (≈ 32.8 µM)
[13]; Vero, read-out: mean IC50 on Vero cells
  IC50: 31.3 ± 14.1 µg/mL (≈ 128 µM)
Vero cells
  Cytotoxicity TC50 Vero: >100 µg/mL
LLC-MK2 cells
  Cytotoxicity TC50 LLC-MK2: >100 µg/mL
CPX; mouse, in vivo
  protection of CPX-infected mice: can protect CPX-infected mice
VAC
  inhibition of VAC replication in vitro: inhibited VAC replication in vitro
